As a reminder, the AC50 is the concentration giving half of the maximal activity seen.

Inconclusive results are not listed. Active and inactive are the calls of the source.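 How the source made its calls: active means compounds lowering viability whose fitted half-maximal concentration is at most tenfold the top tested dose; inconclusive means flat curve with viability loss of 30 to 70%, or bad fit; inactive means the rest.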

Test [1] is described as follows: cytotoxicity toward BJeH engineered cells – cell-based, plate reader, dry powder, set 4, counter-screen for Ras selective lethality project, dose response (AID 540316). The settings on record: BJeH fibroblasts viability, Alamar Blue fluorescence, 48 h; at 48 µM (top of the series). On the technique in general: The purpose of a counterscreen is to sort out artefacts and off-target activity.

The test system of test [2] is BJeH fibroblasts viability, Alamar Blue fluorescence, 48 h. The test is described as above.

On to `Cc1onc(C(=O)N2CCN(Cc3ccccc3)CC2)c1[N+](=O)[O-]`, for which, in test [1], the activity change, negative = fewer viable cells was -0.245% (inactive). With `Cc1onc(CC(=O)N2CCN(C(c3ccc(F)cc3)c3ccc(F)cc3)CC2)c1[N+](=O)[O-]`, the activity change, negative = fewer viable cells in test [1] is -13.5% (inactive). In the case of `Cc1onc(C(=O)N2CCN(C(c3ccccc3)c3ccccc3)CC2)c1[N+](=O)[O-]`, the activity change, negative = fewer viable cells in test [1] was -11.7% (inactive).

As to `CCOc1ccccc1-n1c(C(C)N2CCN(C(=O)COc3ccc(Cl)cc3)CC2)nc2ccccc2c1=O` (stereo not given), the AC50 in test [2] is 7.93 µM.

On to `O=C(c1ccc([N+](=O)[O-])o1)N1CCN(C(c2ccc(F)cc2)c2ccc(F)cc2)CC1`, for which the AC50 in test [2] was 14.2 µM. For the compound `O=C(NCCNC(c1ccccc1)c1ccccc1)c1ccc([N+](=O)[O-])o1`, the concentration at half-maximal activity (AC50) in test [2] is 5.31 µM. As to `Cc1onc(C(=O)NCCNC(c2ccccc2)c2ccccc2)c1[N+](=O)[O-]`, the activity change, negative = fewer viable cells in test [1] was -11.9% (inactive).

Regarding `COc1ccc(C(c2ccc(OC)cc2)N2CCN(C(=O)c3ccc([N+](=O)[O-])o3)CC2)cc1`, the concentration at half-maximal activity (AC50) in test [2] is 6.76 µM.

Turning to `Cc1onc(C(=O)N2CCCN(C(c3ccccc3)c3ccccc3)CC2)c1[N+](=O)[O-]`, the activity change, negative = fewer viable cells in test [1] is -10.7% (inactive). For `COC(=O)c1ccc([C@@H]2c3[nH]c4ccccc4c3C[C@@H](C(=O)OC)N2C(=O)CCl)cc1`, the AC50 in test [2] is 2.68 µM.
